Laboratory results taken from ChEMBL document CHEMBL1150477, “Development of angiotensin II antagonists with equipotent affinity for human AT1 and AT2 receptor subtypes” (Bioorg Med Chem Lett, 1994).
Substitutions are numbered along the chain they refer to.

How the values were obtained:
[1] = target: T1, Type-2 angiotensin II receptor (Homo sapiens, UniProt P50052); experiment: […] inhibitory concentration against AT2 receptor of human adrenal membrane
T1 sequence (P50052 whole entry): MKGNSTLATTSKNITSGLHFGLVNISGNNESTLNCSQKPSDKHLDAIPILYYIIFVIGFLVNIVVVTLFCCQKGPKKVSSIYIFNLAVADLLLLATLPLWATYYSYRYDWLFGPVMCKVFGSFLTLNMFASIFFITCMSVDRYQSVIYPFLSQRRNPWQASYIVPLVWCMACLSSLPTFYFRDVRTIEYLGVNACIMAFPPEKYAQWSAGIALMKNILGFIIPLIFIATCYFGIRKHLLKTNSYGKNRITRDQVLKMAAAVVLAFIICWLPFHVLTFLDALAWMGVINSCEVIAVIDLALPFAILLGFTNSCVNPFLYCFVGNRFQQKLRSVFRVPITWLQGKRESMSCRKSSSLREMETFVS

[2] = target: T2, Type-2 angiotensin II receptor (Rattus norvegicus, UniProt P35351); experiment: […] inhibitory concentration against AT2 receptor of rat adrenal membrane
T2 sequence (P35351 whole entry): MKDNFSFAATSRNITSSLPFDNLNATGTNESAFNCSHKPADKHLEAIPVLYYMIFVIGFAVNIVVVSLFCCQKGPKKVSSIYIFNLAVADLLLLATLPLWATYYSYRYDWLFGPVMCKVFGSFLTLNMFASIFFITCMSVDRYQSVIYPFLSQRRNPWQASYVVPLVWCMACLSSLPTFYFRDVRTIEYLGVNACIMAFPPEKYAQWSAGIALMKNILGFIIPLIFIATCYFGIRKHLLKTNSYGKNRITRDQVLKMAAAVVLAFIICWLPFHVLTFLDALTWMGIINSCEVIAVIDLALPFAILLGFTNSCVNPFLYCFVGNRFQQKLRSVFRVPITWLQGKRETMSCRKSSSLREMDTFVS

[3] = target: T3, Type-1 angiotensin II receptor (Oryctolagus cuniculus, UniProt P34976); experiment: […] inhibitory concentration against Angiotensin II receptor, type 1 of rabbit aorta membrane
T3 sequence (P34976 whole entry): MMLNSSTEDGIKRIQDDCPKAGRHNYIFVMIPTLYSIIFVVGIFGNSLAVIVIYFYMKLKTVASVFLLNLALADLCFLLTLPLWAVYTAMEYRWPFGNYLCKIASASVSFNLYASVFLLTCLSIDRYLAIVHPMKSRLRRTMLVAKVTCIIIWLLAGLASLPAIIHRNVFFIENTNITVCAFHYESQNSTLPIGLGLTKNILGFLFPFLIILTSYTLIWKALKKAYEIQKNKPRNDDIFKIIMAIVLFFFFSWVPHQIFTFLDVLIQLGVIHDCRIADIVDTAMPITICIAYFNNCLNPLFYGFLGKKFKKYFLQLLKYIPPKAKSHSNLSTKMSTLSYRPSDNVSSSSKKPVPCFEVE

[4] = target: T2, Type-2 angiotensin II receptor; experiment: […] inhibitory concentration against Angiotensin II, type 2 of rat midbrain membrane
[5] = target: T4, Angiotensin II receptor (AT-1) type-1 (Rattus norvegicus, UniProt P29089+P25095); experiment: […] inhibitory concentration against Angiotensin II receptor, type 1 of rat adrenal membrane
T4 sequence (P29089 whole entry): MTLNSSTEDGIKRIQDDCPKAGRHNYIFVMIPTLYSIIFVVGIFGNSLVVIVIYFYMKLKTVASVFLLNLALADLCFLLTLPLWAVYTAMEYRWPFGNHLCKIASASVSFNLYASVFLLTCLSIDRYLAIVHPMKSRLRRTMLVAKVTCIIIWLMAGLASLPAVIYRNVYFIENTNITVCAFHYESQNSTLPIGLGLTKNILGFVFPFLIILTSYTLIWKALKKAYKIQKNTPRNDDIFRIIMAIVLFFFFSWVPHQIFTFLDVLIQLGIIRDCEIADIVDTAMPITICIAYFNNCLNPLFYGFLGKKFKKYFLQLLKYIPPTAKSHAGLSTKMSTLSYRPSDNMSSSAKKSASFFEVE
T4 sequence (P25095 whole entry): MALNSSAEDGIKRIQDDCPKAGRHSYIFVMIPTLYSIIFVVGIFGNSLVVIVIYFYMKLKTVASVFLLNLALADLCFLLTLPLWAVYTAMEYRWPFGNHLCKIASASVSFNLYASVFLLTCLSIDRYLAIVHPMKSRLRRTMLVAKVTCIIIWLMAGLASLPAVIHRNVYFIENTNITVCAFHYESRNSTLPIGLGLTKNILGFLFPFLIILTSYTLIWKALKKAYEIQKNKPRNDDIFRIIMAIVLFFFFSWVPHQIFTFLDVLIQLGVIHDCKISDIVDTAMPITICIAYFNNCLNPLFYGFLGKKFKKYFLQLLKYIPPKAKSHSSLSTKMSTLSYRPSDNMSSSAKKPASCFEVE

Oryctolagus cuniculus = organism: Oryctolagus cuniculus; experiment: Ratio of inhibitory concentration against AT2 receptor of rat midbrain to AT1 receptor of rabbit aorta
[6] = target: Angiotensin II receptor (Homo sapiens) (UniProt P30556+P50052); experiment: Ratio of inhibitory concentration against AT2 receptor and AT1 receptor of human adrenal membrane
[7] = target: Angiotensin II receptor (Rattus norvegicus) (UniProt P29089+P25095+P35351); experiment: Ratio of inhibitory concentration against AT2 receptor and AT1 receptor of rat adrenal membrane
[8] = target: T5, Type-1 angiotensin II receptor (Homo sapiens, UniProt P30556); experiment: […] inhibitory concentration against Angiotensin II receptor, type 1 of human adrenal membrane
T5 sequence (P30556 whole entry): T3 sequence (P34976 whole entry) with M2I, A49V, V254I, V270I, H272R, K311R, S349T, V353A

Angiotensin II receptor (Homo sapiens), sequence (P30556 whole entry, looked up, one chain of several): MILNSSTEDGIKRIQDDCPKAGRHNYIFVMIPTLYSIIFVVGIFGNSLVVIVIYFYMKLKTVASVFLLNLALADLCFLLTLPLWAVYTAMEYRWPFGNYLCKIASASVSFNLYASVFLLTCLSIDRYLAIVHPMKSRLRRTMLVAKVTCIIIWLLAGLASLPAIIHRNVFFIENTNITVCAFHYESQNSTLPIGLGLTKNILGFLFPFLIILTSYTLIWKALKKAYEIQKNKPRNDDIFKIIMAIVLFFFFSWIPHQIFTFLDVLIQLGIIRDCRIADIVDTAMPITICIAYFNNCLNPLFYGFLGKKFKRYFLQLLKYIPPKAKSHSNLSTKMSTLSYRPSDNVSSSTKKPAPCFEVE

| SMILES | IC50 [1] [nM] | IC50 [2] [nM] | IC50 [3] [nM] | IC50 [4] [nM] | IC50 [5] [nM] | Ratio (Oryctolagus cuniculus) | Ratio [6] | Ratio [7] | IC50 [8] [nM] |
| --- | --- | --- | --- | --- | --- | --- | --- | --- | --- |
| CCc1nc2ccc(NC(=O)c3ccccn3)cc2c(=O)n1Cc1ccc(-c2ccccc2S(=O)(=O)NC(=O)OCCC(C)C)cc1F | 37 | 0.63 | 2.3 | 1.8 | 1.3 | 0.79 | 0.47 | 2.5 | 85 |
| CCCCCN(C(=O)c1ccccc1)c1ccc2nc(CCC)n(Cc3ccc(-c4ccccc4-c4nn[nH]n4)cc3)c(=O)c2c1 | 7 |  | 1.5 |  |  |  |  |  |  |
| CCc1nc2ccc(NC(=O)N(C)C(C)C)cc2c(=O)n1Cc1ccc(-c2ccccc2S(=O)(=O)NC(=O)COCC(C)C)cc1F | 11 | 0.61 | 2.2 | 0.21 | 2 | 0.1 | 0.18 | 0.3 | 65 |
| CCNC(=O)Nc1ccc2nc(CC)n(Cc3ccc(-c4ccccc4S(=O)(=O)NC(=O)OCCC4CC4)cc3F)c(=O)c2c1 | 9.8 | 0.8 | 0.73 | 0.56 | 0.64 | 0.97 | 0.77 | 0.92 | 12 |
| CCCCc1nc2ccc(NC(=O)N(C)C(C)C)cc2c(=O)n1Cc1ccc(-c2ccccc2S(=O)(=O)NC(=O)OCCC(C)C)cc1F | 8 | 0.22 | 0.23 | 0.21 | 0.14 | 1.3 | 4.4 | 1.5 | 1.9 |
| CCc1nc2ccc(NC(=O)N(C)C(C)C)cc2c(=O)n1Cc1ccc(-c2ccccc2S(=O)(=O)NC(=O)OCC=C(C)C)cc1F | 9.3 | 1.04 | 0.77 | 0.75 | 0.39 | 0.97 | 0.62 | 2.7 | 14.7 |
| CCc1ccc(C(=O)NS(=O)(=O)c2ccccc2-c2ccc(Cn3c(CC)nc4ccc(NC(=O)N(C)C(C)C)cc4c3=O)c(F)c2)cc1 | 8.9 | 0.93 | 0.54 | 0.25 | 0.14 | 1.6 | 1.6 | 2.5 | 5.8 |
| CCCc1nc2ccc(NC(=O)NC(C)C)cc2c(=O)n1Cc1ccc(-c2ccccc2S(=O)(=O)NC(=O)c2ccc(CC)cc2F)cc1F | 4.4 | 0.21 | 0.2 | 0.28 | 0.11 | 1.4 | 5.3 | 2.3 | 0.84 |
| CCc1nc2ccc(NC(=O)N(C)C(C)C)cc2c(=O)n1Cc1ccc(-c2ccccc2S(=O)(=O)NC(=O)OCCC(C)C)cc1F | 9.2 | 0.3 | 0.62 | 0.2 | 0.3 | 0.33 | 0.9 | 1.1 | 10 |
